Experiments:
GSE.20D11 TCR = test: HLA-DQ8 SABR-II (+ HLA-A2.1 SABR) library screen, enrichment score; type: cell-based, human
Description: To test whether HLA-DQ8 SABR-II could be used for antigen discovery, we curated a list of insulin B, insulin C and HIP epitopes published by Wiles et al.[58] and cloned them into the DQ8 SABR-II backbone using the same pooled cloning strategy as the I-Ag7 SABR-II library (Supplementary Table 2). Furthermore, we combined SABR-I (the HLA-A*0201 library reported in our previous work[27]) and SABR-II libraries at a cellular level and screened against the GSE.20D11 TCR.
(§1) To generate the I-Ag7 restricted SABR library, we combined all Immune Epitope Database epitopes with a published immunopeptidome generated by Wan et al.[51]. Sequences were filtered remove all post-translational modifications except deamidation and HIPs and trimmed between 9–25 amino acid lengths. For the insulin C HIP and HLA-DQ8 library, non-contiguous epitopes from Wiles et al.[66] as well as all Immune Epitope Database epitopes were combined to generate the epitope list. Epitope sequences were back-translated using the backtranslate_fast.py script.
(§2) For SABR library screens, 3 × 10^6 NFAT–GFP Jurkat cells expressing the SABR library were labeled with CellTrace Violet (BioLegend) according to the manufacturer’s protocol before incubation with 3 × 10^6 Jurkat cells expressing the TCR of interest. These mixtures were incubated in a six-well plate for 16–20 h. Cells were stained with anti-CD69-APC-Cy7 where indicated (BioLegend) and the top 1–2% of GFP^+CD69^+ cells were sorted for genomic DNA extraction, indexing and sequencing (see below). Multiplexed assays were scaled on a per-TCR basis (for example 3 × 10^6 for each of three TCRs against 9 × 10^6 library cells). For single SABR assays, unless otherwise defined, 5 × 10^5 SABR expressing NFAT–GFP Jurkat cells (or 5KC cells) were labeled with CellTrace Violet (BioLegend) according to the manufacturer’s protocol before incubation with 5 × 10^5 TCR-expressing Jurkat cells (or 5KC cells) in a round-bottom 96-well plate for 16–20 h. Cells were stained with anti-CD69-APC-Cy7 when indicated and acquired on the Attune NxT flow cytometer (Thermo Fisher Scientific). All flow analysis was performed using FlowJo (BD). For Daudi cell co-culture, 1 × 10^6 Jurkat cells expressing the TCR of interest were incubated with 1 × 10^6 Daudi cells expressing a SABR of interest for 3 days. On day 3, cells were labeled with anti-RT1B-PE and anti-Fas-APC-Cy7 before being acquired on the Attune NxT flow cytometer.
Genomic DNA was extracted from sorted cells immediately after sorting, using the PureLink genomic DNA extraction kit (Life Technologies). The integrated SABR vectors were amplified with KOD polymerase (Millipore) and two rounds of amplification. In the first round, IDT-UD-SABR-C2-F and IDT-UD-SABR-C2-R primers were used to amplify the epitope. In the second round, UDI0001-R and UDI0001-F primers (representative of index 1) were used to add Illumina unique dual indexes (UDIs) to the amplicons. A different UDI was used for each sample. The reactions were pooled and purified with the NucleoSpin gel and PCR purification kit (Takara). The purified PCR product was checked before sequencing using 2% agarose gel and subjected to sequencing on a HiSeq4000 (Fulgent Genetics). Unaligned reads generated by the sequencer were stored in FASTQ files. FASTQ files were concatenated to generate one file for read1 and read2 each. The sequences were demultiplexed into individual indexes using demultiplex_dual.py. Epitopes were extracted and scored using epitope_extract_fastq_v1.1.py and merge_counts_split_v2.1.py. The ES was calculated using Microsoft Excel (Microsoft) workbooks.

TCR3 [1] = test: I-Ag7 SABR-II HIP library screen, enrichment score; type: cell-based, mouse
Description: (§3) Given the predominance of HIP-reactive TCRs, we hypothesized that there may be other TCRs that respond to HIPs that were not encoded in our initial library configuration. While the initial I-Ag7 SABR-II library consisted of a number of HIPs, HIP formation is thought to be more widespread in pancreatic β-cells[52],[70]. Therefore, we sought to construct a defined, HIP-focused library to probe whether there were any undiscovered HIP-reactive TCRs that could be recognized by the clonally expanded TCR in our dataset. To test this, we utilized a published proteomic dataset, which predicted that several proteins that were highly expressed in secretory granules of β-cells may contribute to HIP formation. Using their predictions, we built a theoretical HIP library, in which all possible ‘left’ halves of the insulin C chain derived from natural cleavage products were fused to ‘right’ halves derived from secretory granule proteins (Fig. 5a). This 2,561-epitope library (12–25 amino acids per epitope) consisted of only HIPs and a small number of positive control epitopes (Supplementary Table 5). We screened the top three clonally expanded TCRs (TCR1, TCR2 and TCR3) against this library, as these TCRs had not been de-convoluted using the original library. […] To confirm that the HIP itself was important for the cognate interaction, we cloned single 14-mer epitopes into SABR-IIs consisting of seven amino acids of the left portion of the HIP and seven amino acids of the right portion of the HIP. In this way, no nine amino acids from either peptide sequence alone could occupy the binding pocket of I-Ag7, ensuring that TCR reactivity spanned the HIP junction. […] Of note, in all the epitopes that were tested, the ‘left’ half derived from insulin C was conserved, whereas the ‘right’ halves were derived from several other proteins (Fig. 5d). […] Moreover, the promiscuous binding of TCR3 to HIPs corroborates evidence from other NOD mouse-derived TCRs reacting to multiple HIPs[72].
as §1
as §2, with “cytometer. […]” for “cytometer.”

Jurkat cells, No TCR = test: Single SABR-II co-incubation, background without TCR; type: cell-based, human; conditions: No TCR, Fig 5C
Description: (§4) We performed systematic screening of the cloned TCRs against the I-Ag7 SABR-II library. Several TCRs along with a positive control (such as BDC2.5 or 4-8Ins) were screened individually against the library for each sort (Extended Data Fig. 6a and Supplementary Table 4). High- and low-confidence ES zones for each screened TCR were defined by the ES values of the control TCR’s cognate epitopes. For all putative cognate epitopes, single SABR-IIs were constructed, expressed in NFAT–GFP Jurkat cells and used for co-incubation with the corresponding TCRs. Co-incubation assays that yielded a GFP signal higher than that obtained in assays with no TCR were determined to be positive and the epitopes deemed true cognate ligands (Extended Data Fig. 6b,c). Using this strategy, we obtained epitopes in the high-confidence zone for eight TCRs (Fig. 3a and Extended Data Fig. 6b,d). Among numerous altered peptide ligands (APLs), these TCRs recognized the physiological InsC-ChgA HIP ([…] and analogs, recognized by TCR5, TCR6B, TCR9 and TCR34), InsC-Iapp HIP ([…] and analogs, recognized by TCR4 and TCR15) and InsB9:23 ([…] and analogs recognized by TCR24 and TCR37). These cognate high-confidence hits were validated using single SABR-II co-incubation assays (Fig. 3b and Extended Data Fig. 7a). Further validations using in vitro mouse interleukin-2 (mIL-2) secretion by TCR-expressing 5KC reporter cells[13] or CD25 expression by TCR-expressing splenic CD4^+ T cells upon stimulation with the cognate epitope were performed (Extended Data Fig. 7b,c). Furthermore, low-confidence hits were called for ten TCRs and tested in co-incubation assays.
as §2

TCR3 [2] = test: Single SABR-II co-incubation, NFAT-GFP Jurkat; type: cell-based, mouse; conditions: TCR 3, Fig 5C
Description: as §3, §2

TCR4 = test: Single SABR-II co-incubation, NFAT-GFP Jurkat; type: cell-based, mouse; conditions: TCR 4, Fig 5C
Description: as §4, §2

[3] = ES = TCRObserved - TCRPredicted, TCRPredicted = LIBObserved x SLOPE + INTERCEPT, SLOPE 1.10224, INTERCEPT -1.65707e-5
[4] = HLA-A2.1 and HLA-DQ8 SABR libraries screened simultaneously, reads mapped to DQ8 library, one biological experiment
[5] = HIP library, TCR 3, TCR_Mean of 3 replicates minus PREDICTED_TCR (slope 0.926662, intercept 2.88051e-5)
[6] = I-Ag7 HIP library, one biological experiment

AAPSVFIFPPSDEQLK
Enrichment score (GSE.20D11 TCR; [3]): -0.0003017
Enrichment score (GSE.20D11 TCR; [4]): -0.0003017

AASKERSGVSL
Enrichment score (GSE.20D11 TCR; [3]): 3.541e-5
Enrichment score (GSE.20D11 TCR; [4]): 3.541e-5

APKRPPSAF
Enrichment score (GSE.20D11 TCR; [3]): 2.7496e-5
Enrichment score (GSE.20D11 TCR; [4]): 2.7496e-5

CDGERPTLAFLQDVM
Enrichment score (GSE.20D11 TCR; [3]): -0.0002437
Enrichment score (GSE.20D11 TCR; [4]): -0.0002437

DPQVEQLELGGSKDSDKGQQDGFE
Enrichment score (TCR3 [1]; [5]): 0.001805

EDPQVEQLELGGAEDQELESLSAI
Enrichment score (TCR3 [1]; [5]): 0.001322

EDPQVEQLELGGKADEFPDFYDSE
Enrichment score (TCR3 [1]; [5]): 0.001943

EQLELGGKADEFPD [14-mer hybrid insulin peptide spanning the fusion junction, TCR3 hit]
%GFP+CD69+ cells of SABR-NFAT-GFP-Jurkat cells (Jurkat cells, No TCR; technical replicate 1): 11.2%
%GFP+CD69+ cells of SABR-NFAT-GFP-Jurkat cells (Jurkat cells, No TCR; technical replicate 2): 12.4%
%GFP+CD69+ cells of SABR-NFAT-GFP-Jurkat cells (TCR3 [2]; technical replicate 1): 38.6%
%GFP+CD69+ cells of SABR-NFAT-GFP-Jurkat cells (TCR3 [2]; technical replicate 2): 37.2%
%GFP+CD69+ cells of SABR-NFAT-GFP-Jurkat cells (TCR4; technical replicate 1): 11.4%
%GFP+CD69+ cells of SABR-NFAT-GFP-Jurkat cells (TCR4; technical replicate 2): 11.5%

EVEDEVEDPQVAQLELGGGPGAGD [theoretical HIP of the I-Ag7 HIP library]
Enrichment score (TCR3 [1]; [6]): 2.439e-5

EVEDEVEDPQVEQLELGGSPGDLQ [theoretical HIP of the I-Ag7 HIP library]
Enrichment score (TCR3 [1]; [6]): 0.0001951

EVEDFVKQHLCGPHLVEALYLVCG [theoretical HIP of the I-Ag7 HIP library]
Enrichment score (TCR3 [1]; [6]): -1.381e-6

EVEDFVKQHLCGSHLVEALYLVCG [theoretical HIP of the I-Ag7 HIP library]
Enrichment score (TCR3 [1]; [6]): -0.0001794

EVEDGIVDQCCTSICSLYQLENYC [theoretical HIP of the I-Ag7 HIP library]
Enrichment score (TCR3 [1]; [6]): 1.206e-5

EVEDPQVEQLELNAARDPNRESLD
Enrichment score (TCR3 [1]; [5]): 0.002309

QLELGGSKDSDKGQ [14-mer hybrid insulin peptide spanning the fusion junction, TCR3 hit]
%GFP+CD69+ cells of SABR-NFAT-GFP-Jurkat cells (Jurkat cells, No TCR; technical replicate 1): 9.03%
%GFP+CD69+ cells of SABR-NFAT-GFP-Jurkat cells (Jurkat cells, No TCR; technical replicate 2): 10.7%
%GFP+CD69+ cells of SABR-NFAT-GFP-Jurkat cells (TCR3 [2]; technical replicate 1): 10.5%
%GFP+CD69+ cells of SABR-NFAT-GFP-Jurkat cells (TCR3 [2]; technical replicate 2): 9.28%
%GFP+CD69+ cells of SABR-NFAT-GFP-Jurkat cells (TCR4; technical replicate 1): 9.32%
%GFP+CD69+ cells of SABR-NFAT-GFP-Jurkat cells (TCR4; technical replicate 2): 9.4%

QVEQLELNAARDPN [14-mer hybrid insulin peptide spanning the fusion junction, TCR3 hit]
%GFP+CD69+ cells of SABR-NFAT-GFP-Jurkat cells (Jurkat cells, No TCR; technical replicate 1): 2.19%
%GFP+CD69+ cells of SABR-NFAT-GFP-Jurkat cells (Jurkat cells, No TCR; technical replicate 2): 2.2%
%GFP+CD69+ cells of SABR-NFAT-GFP-Jurkat cells (TCR3 [2]; technical replicate 1): 66.4%
%GFP+CD69+ cells of SABR-NFAT-GFP-Jurkat cells (TCR3 [2]; technical replicate 2): 66.1%
%GFP+CD69+ cells of SABR-NFAT-GFP-Jurkat cells (TCR4; technical replicate 1): 2.09%
%GFP+CD69+ cells of SABR-NFAT-GFP-Jurkat cells (TCR4; technical replicate 2): 2.09%

VEDPQVEQLELGSGKEVKGEEKGE
Enrichment score (TCR3 [1]; [5]): 0.002292

VEQLELGAKQEEKE [14-mer hybrid insulin peptide spanning the fusion junction, TCR3 hit]
%GFP+CD69+ cells of SABR-NFAT-GFP-Jurkat cells (Jurkat cells, No TCR; technical replicate 1): 1.47%
%GFP+CD69+ cells of SABR-NFAT-GFP-Jurkat cells (Jurkat cells, No TCR; technical replicate 2): 1.55%
%GFP+CD69+ cells of SABR-NFAT-GFP-Jurkat cells (TCR3 [2]; technical replicate 1): 80.7%
%GFP+CD69+ cells of SABR-NFAT-GFP-Jurkat cells (TCR3 [2]; technical replicate 2): 80.6%
%GFP+CD69+ cells of SABR-NFAT-GFP-Jurkat cells (TCR4; technical replicate 1): 1.47%
%GFP+CD69+ cells of SABR-NFAT-GFP-Jurkat cells (TCR4; technical replicate 2): 1.36%

VEQLELGSGKEVKG [14-mer hybrid insulin peptide spanning the fusion junction, TCR3 hit]
%GFP+CD69+ cells of SABR-NFAT-GFP-Jurkat cells (Jurkat cells, No TCR; technical replicate 1): 3.79%
%GFP+CD69+ cells of SABR-NFAT-GFP-Jurkat cells (Jurkat cells, No TCR; technical replicate 2): 4%
%GFP+CD69+ cells of SABR-NFAT-GFP-Jurkat cells (TCR3 [2]; technical replicate 1): 78.8%
%GFP+CD69+ cells of SABR-NFAT-GFP-Jurkat cells (TCR3 [2]; technical replicate 2): 77.6%
%GFP+CD69+ cells of SABR-NFAT-GFP-Jurkat cells (TCR4; technical replicate 1): 4.13%
%GFP+CD69+ cells of SABR-NFAT-GFP-Jurkat cells (TCR4; technical replicate 2): 4.17%

Source: paper PMC11093748, “De novo identification of CD4^+ T cell epitopes” (Nature Methods, 2024)
